Consider 11 compounds from article PMC4476580, “Novel Broad Spectrum Inhibitors Targeting the Flavivirus Methyltransferase” (PLoS ONE, 2015).

Usually IC50 stands for the concentration that inhibits the measured activity by half. The CC50 is the concentration that lowers cell viability or growth by half. A high value points to lower toxicity to the cells. Broadly, the EC50 is the concentration that produces a half-maximal response. Lower therefore signals a more potent agent.

Data set [1] addresses T1, WNV MTase (West Nile virus, UniProt Q9Q6P4).
T1 construct: containing the N-terminal 300, 266, 265, and 272 amino acids of NS5 protein, respectively; made in house
T1 sequence (Q9Q6P4 2529-2794 limits assumed): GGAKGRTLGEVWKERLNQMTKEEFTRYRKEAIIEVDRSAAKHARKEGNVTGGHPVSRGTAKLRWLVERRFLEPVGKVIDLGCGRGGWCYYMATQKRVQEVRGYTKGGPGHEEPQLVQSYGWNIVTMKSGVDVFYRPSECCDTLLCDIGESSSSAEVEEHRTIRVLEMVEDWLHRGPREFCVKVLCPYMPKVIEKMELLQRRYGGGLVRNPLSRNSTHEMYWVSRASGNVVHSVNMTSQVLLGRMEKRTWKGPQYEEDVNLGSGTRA
The experiment in a line: biochemical. The data set is classed as biochemical.

Data set [2] addresses T1, WNV MTase. Briefly: biochemical.
The nature of data set [3]: MTT cell proliferation cytotoxicity assay. The following applies: hamster; BHK-21 cells, MTT, 42 hours. In kind it is cell-based. The protocol:
(§1) Cell-based assays were next performed to evaluate the biological activities of the selected compounds. The cytotoxicity of these compounds was first evaluated by using a MTT cell proliferation assay with a BHK-21 cell line (Table 1, fig 5), as we described previously. […] Therefore, these compounds were further investigated for their in vitro antiviral efficacy.
(§2) Cytotoxicity was measured using BHK-21 cells by a MTT cell proliferation assay using the 3-(4,5-dimethylthiazol-2-yl)-2,5-diphenyl tetrazolium bromide method (ATCC), as described previously.

Data set [4] relates to BHK-21 cells. The experiment in a line: MTT cell proliferation cytotoxicity assay. In kind it is cell-based. The following applies: for CC50 values times higher than IC50 values: BHK-21 CC50 versus in vitro IC50; for CC50: BHK-21 cells, MTT, 42 hours. The protocol: as §1, §2
The subject of data set [5] is WNV. The experiment in a line: Viral titer reduction assay. As to conditions: for Inhibition of the WNV titer: highest concentration tested (200 μM).
For data set [6], the target named is T2, DENV2 MTase (Dengue virus type 2, UniProt P14340).
T2 construct: containing the N-terminal 300, 266, 265, and 272 amino acids of NS5 protein, respectively; made in house
T2 sequence (P14340 2493-2755 limits assumed): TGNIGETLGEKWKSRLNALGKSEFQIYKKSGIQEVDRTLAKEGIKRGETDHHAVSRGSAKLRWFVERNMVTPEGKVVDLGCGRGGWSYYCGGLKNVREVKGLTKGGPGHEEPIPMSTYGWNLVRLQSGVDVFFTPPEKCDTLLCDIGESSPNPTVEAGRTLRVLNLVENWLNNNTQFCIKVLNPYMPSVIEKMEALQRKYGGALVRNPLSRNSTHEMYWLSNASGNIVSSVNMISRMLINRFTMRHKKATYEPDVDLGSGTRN
In kind it is biochemical. As to conditions: read-out: IC50 N7.

The target in data set [7] is T2, DENV2 MTase. In kind it is biochemical. As to conditions: read-out: IC50 2’-O.
Data set [8] has as its target T3, DENV3 MTase (Dengue virus type 3, UniProt Q6YMS4).
T3 construct: containing the N-terminal 300, 266, 265, and 272 amino acids of NS5 protein, respectively; made in house
The data set is classed as biochemical. The following applies: read-out: IC50 N7.

The target in data set [9] is T3, DENV3 MTase. In kind it is biochemical. As to conditions: read-out: IC50 2’-O.
The target of data set [10] is T4, YFV MTase (Yellow fever virus, UniProt P03314). In kind it is biochemical. As to conditions: read-out: IC50 N7.
T4 sequence (P03314 2507-2771 limits assumed): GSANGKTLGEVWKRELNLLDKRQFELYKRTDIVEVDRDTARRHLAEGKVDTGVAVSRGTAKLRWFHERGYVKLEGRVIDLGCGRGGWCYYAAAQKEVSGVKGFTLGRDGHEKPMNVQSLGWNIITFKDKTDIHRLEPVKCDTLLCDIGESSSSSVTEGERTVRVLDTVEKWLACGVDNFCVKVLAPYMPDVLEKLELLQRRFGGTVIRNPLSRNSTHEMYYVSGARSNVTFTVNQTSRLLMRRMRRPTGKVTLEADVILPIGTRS
In data set [11] the target is T4, YFV MTase. In kind it is biochemical. As to conditions: read-out: IC50 2’-O.

Like-named read-outs stand apart in the source and are kept apart here. A value given as a limit tells only on which side of the number the result lay.

T3 sequence (Q6YMS4 2492-2753): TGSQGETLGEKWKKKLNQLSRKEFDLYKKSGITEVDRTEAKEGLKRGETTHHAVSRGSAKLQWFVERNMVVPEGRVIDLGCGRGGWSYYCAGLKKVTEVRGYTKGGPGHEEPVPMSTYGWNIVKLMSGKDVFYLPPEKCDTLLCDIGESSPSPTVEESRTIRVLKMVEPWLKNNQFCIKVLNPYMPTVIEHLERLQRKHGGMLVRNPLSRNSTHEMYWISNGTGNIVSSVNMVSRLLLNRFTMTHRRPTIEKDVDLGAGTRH

As for `Nc1ncnc2c1ncn2[C@@H]1O[C@H](C[C@@H](N)CC[C@H](N)C(=O)O)[C@@H](O)[C@H]1O` [SIN, sinefungin, reference compound], in [1], the “Inhibition of the N7 activity of the WNV MTase” value is recorded as ~ 80%.

Consider `Ic1ccc2c(c1)N(c1ccccc1)c1cc(Nc3ccc4c(c3)N(c3ccccc3)c3cc(I)ccc3N4)ccc1N2` [NSC 402959], for which the IC50 is 9.8 µM in [1] (read-out: IC50 N7 No CHAPS), 30.8 µM in [1] (read-out: IC50 N7 with CHAPS) and 6.2 µM in data set [2] (read-out: IC50 2’-O with CHAPS). The same compound registered a CC50 at 42 h in data set [3] of 14.6 µM.

On to `O=c1c2ccccc2c2ccccc2c(=O)n1-c1cc2c3ccccc3ccc2c2ccccc12` [NSC 128609], for which the results for the IC50 in data set [1] (IC50 N7 No CHAPS) and in [2] were 40 µM and 101 µM, respectively. The CC50 at 42 h in [3] was found to be 192 µM.

`O=C1c2ccccc2C(=O)c2c1ccc(N1C(=O)c3ccccc3C1=O)c2-c1c(N2C(=O)c3ccccc3C2=O)ccc2c1C(=O)c1ccccc1C2=O` [NSC 115448]: the IC50 in data set [1] (IC50 N7 No CHAPS) stood at 15.7 µM; in data set [1] (IC50 N7 with CHAPS), 225 µM; in [2] it was 16.6 µM. The same compound came in with a CC50 at 42 h in data set [3] of 155 µM.

For `CC1=C(Nc2c(C)cc(O)cc2O)C(=O)C=c2oc3c(c21)C(C)=C(Nc1c(C)cc(O)cc1O)C(=O)C=3` [NSC 610930], the results for the IC50 in data set [1] (IC50 N7 No CHAPS), in data set [1] (IC50 N7 with CHAPS) and in data set [2] were 4.2 µM, 18.2 µM and 5.6 µM, respectively. Further, the CC50 at 42 h in data set [3] worked out at 117 µM. Further, the “CC50 values times higher than IC50 values” in [4] is ~10. The compound further registered an EC50 in [5] (West Nile virus, 42 h) of 12.6 µM.

Turning to `O=C1CN2CCN(CC2)CC(=O)Nc2ccc(cc2)S(=O)(=O)c2ccc(cc2)NC(=O)CN2CCN(CC2)CC(=O)Nc2ccc(cc2)S(=O)(=O)c2ccc(cc2)N1` [NSC 36806], the figures for the half-inhibitory concentration (IC50) in data set [1] (IC50 N7 No CHAPS), in data set [1] (IC50 N7 with CHAPS) and in data set [2] were 39 µM, 35.5 µM and > 300 µM, respectively. The compound also showed a CC50 at 42 h in data set [3] of 362 µM. Also, the “CC50 values times higher than IC50 values” in data set [4] was ~10. The concentration giving a half-maximal response (EC50) in data set [5] (West Nile virus, 42 h) is > 200 µM. Moreover, the “Inhibition of the WNV titer” value in [5] is recorded as “did not inhibit the WNV titer”.

Regarding `Cc1nn(-c2ccc(S(=O)(=O)[O-])cc2)c([O-])c1N=Nc1ccc(-c2ccc(N=Nc3ccc4c(S(=O)(=O)[O-])cc(S(=O)(=O)[O-])c(N)c4c3[O-])c([O-])c2)cc1[O-].[Cu+2].[Cu+2].[H+].[H+].[H+]` [NSC 306711], the half-inhibitory concentration (IC50) was found to be 0.87 µM in data set [1] (read-out: IC50 N7 No CHAPS); 2.3 µM in data set [1] (read-out: IC50 N7 with CHAPS); 4.3 µM in [2] (read-out: IC50 2’-O with CHAPS); 5.3 µM in data set [6]; 6.9 µM in data set [7]; 36 µM in data set [8]. Moreover, the IC50 in [9] came out at 4.7 µM; in data set [10], 1.2 µM; in data set [11], 1.1 µM. Besides, the “CC50 values times higher than IC50 values” in [4] is given as ~10. In addition, half-maximal cytotoxicity in data set [4] (CC50) was put at 332 µM. In addition, in data set [5] (BHK cells infected with WNV, MOI 0.1, 42 hours post-infection, plaque assay on Vero cells), it took 1 µM to reach a half-maximal effect (EC50).

Take `O=C1c2cc([N+](=O)[O-])ccc2-c2ccc3c4ccc5c6c(ccc(c7ccc1c2c73)c64)C(=O)c1cc([N+](=O)[O-])ccc1-5` [NSC 51535]: the IC50 in data set [1] (read-out: IC50 N7 No CHAPS) worked out at 3.9 µM; in data set [2] (read-out: IC50 2’-O with CHAPS), 5.6 µM. Further, in data set [3], the midpoint of cytotoxicity, the CC50 at 42 h, lay at 5.7 µM.

Consider `CN1CCN(c2ccc3[nH]c(-c4ccc5[nH]c(-c6ccc(O)cc6)nc5c4)nc3c2)CC1` [NSC 322921], for which the concentration for half-maximal inhibition (IC50) in [1] (IC50 N7 No CHAPS) is 29.9 µM; in data set [1] (IC50 N7 with CHAPS), 26.5 µM; in [2] it was > 300 µM. The half-maximal cytotoxic concentration (CC50) at 42 h in data set [3] was > 500 µM. The “CC50 values times higher than IC50 values” in data set [4] is ~10. Moreover, the concentration giving a half-maximal response (EC50) in data set [5] (West Nile virus, 42 h) was > 200 µM. For the same compound, the “Inhibition of the WNV titer” value in [5] was “did not inhibit the WNV titer”.

Regarding `COc1ccc2cc1Oc1ccc(cc1)CC1c3c(cc(OC)c4c3Oc3cc5c(cc3O4)CCNC5C2)CCN1C` (stereo not drawn) [NSC 181486], the concentration for half-maximal inhibition (IC50) was 25.9 µM in data set [1] (IC50 N7 No CHAPS), 34.7 µM in [1] (IC50 N7 with CHAPS) and > 300 µM in data set [2]. The CC50 at 42 h in [3] is 4.8 µM.

Take `Cc1ccc(NC(=O)c2cc3ccccc3cc2O)c(C)c1.Cc1ccc(NC(=O)c2cc3ccccc3cc2O)c(C)c1.[Ni]` [NSC 306698]: the results for the half-inhibitory concentration (IC50) in data set [1] (read-out: IC50 N7 No CHAPS) and in data set [2] (read-out: IC50 2’-O with CHAPS) were 45 µM and 49.1 µM, respectively. In [4], this compound showed a cytotoxic concentration (CC50) of 32 µM.
